Data on 5 molecules can be found in PMC7784547 (Bioorganic Chemistry, 2021).

Entries after “also recorded” stand apart in the source; their conditions may differ. Like-named read-outs stand apart in the source and are kept apart here. Where only a bound is given, the exact number is not on record here.

One data set is described as follows: in vitro. Particulars: dog.
The test system of data set [1] is Influenza A/Puerto Rico/8/34 (H1N1). Description: microbe, parasite or virus in culture. Particulars: H1N1|PR8, MDCK, read-out: IC50 ± SD, PR8.
A further data set has as its system A/Aichi/2/68 (H3N2). Description: microbe, parasite or virus in culture. Type of data set: cell-based. The following applies: read-out: IC50 ± SD, H3N2.
Data set [2] has as its system Influenza A/Puerto Rico/8/34 (H1N1).
A further data set concerns SARS-CoV-2. Particulars: read-out: IC50 against SARS-CoV-2, Full-time treatment; cited from earlier work.
The subject of data set [3] is influenza A/PR/8/34 (H1N1) virus. Details: species or system KM mice. Particulars: mouse, in vivo; for body weight of infected mice: po.
The test system of data set [4] is Influenza A/Puerto Rico/8/34 (H1N1). Type of data set: cell-based, influenza A virus.
Another data set deals with hemagglutinin (HA) (Influenza A virus, UniProt P03452).
The subject of data set [5] is influenza A/PR/8/34 (H1N1) virus. Type of data set: cell-based.
A further data set deals with influenza A virus. The class given is cell-based.
For data set [6], the system named is A/Puerto Rico/8/34 (H1N1) influenza virus. Type of data set: cell-based.
In data set [7] the test system is influenza virus A/PR/8/34 (H1N1).
The conditions of data set [8]: mouse, in vivo, po, 10 mg/kg.

hemagglutinin (HA), sequence (P03452 18-342 limits assumed): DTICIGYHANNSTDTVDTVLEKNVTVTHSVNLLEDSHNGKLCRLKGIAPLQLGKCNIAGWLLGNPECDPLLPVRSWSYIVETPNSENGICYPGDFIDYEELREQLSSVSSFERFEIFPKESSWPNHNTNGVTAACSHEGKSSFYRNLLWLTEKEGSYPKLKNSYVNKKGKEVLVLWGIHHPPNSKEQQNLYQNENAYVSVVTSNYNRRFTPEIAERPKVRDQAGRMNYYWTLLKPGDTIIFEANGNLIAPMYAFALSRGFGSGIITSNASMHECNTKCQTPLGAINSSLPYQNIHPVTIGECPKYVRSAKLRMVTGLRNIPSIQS
hemagglutinin (HA), sequence (P03452 344-565 limits assumed): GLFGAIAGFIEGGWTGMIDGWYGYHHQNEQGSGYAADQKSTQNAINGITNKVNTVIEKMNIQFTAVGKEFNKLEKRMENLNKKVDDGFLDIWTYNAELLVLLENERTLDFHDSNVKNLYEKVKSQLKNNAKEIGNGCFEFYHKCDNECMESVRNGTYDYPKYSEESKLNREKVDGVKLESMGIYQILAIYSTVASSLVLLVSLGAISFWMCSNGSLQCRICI

Turning to `C=Cc1c(C)c2cc3nc(c4c5[nH]c(cc6nc(cc1[nH]2)C(C)=C6CC)c(C)c5C(=O)C4)[C@@H](CCC(=O)O)[C@@H]3C` [PPa, pyropheophorbide a, reference compound], the CC50 in the data set “in vitro” worked out at 140 ± 3.61 µM. The IC50 came out at 0.32 ± 0.28 µM in data set [1] and 1.23 ± 1.1 µM in the data set on A/Aichi/2/68 (H3N2) (Influenza A virus, H3N2, MDCK).
`CC(C)CCC[C@@H](C)[C@H]1CC[C@H]2[C@@H]3CC=C4C[C@@H](OCC(=O)N[C@@H](CCCCN)C(=O)N[C@@H](CCCCN)C(=O)N[C@@H](Cc5c[nH]c6ccccc56)C(=O)N[C@@H](CCCCN)C(N)=O)CC[C@]4(C)[C@H]3CC[C@]12C` [S-KKWK, reference compound] displayed a 50% inhibitory concentration (IC50) in data set [2] (/Puerto Rico/8/34, 48 h) of 1.85 ± 0.92 µM.
As for `CCN(CC)CCCC(C)Nc1ccnc2cc(Cl)ccc12` (centres unmarked) [chloroquine], the IC50 with SARS-CoV-2 was 10 µM.
As to `CCOC(=O)C1=C[C@@H](OC(CC)CC)[C@H](NC(C)=O)[C@@H](N)C1` [oseltamivir phosphate, reference compound], the “body weight of infected mice” value in [3] was “slowly increased”.
Take protoporphyrin IX [PPIX]: the “antiviral activity with red light versus no light” value in data set [4] is reported as “no significant difference”. In addition, the “hemagglutinin inhibition (viral adsorption to target cells)” value on hemagglutinin (HA) is on record as “negative results”. For the same molecule, in data set [5], the “inhibitory effect by time of addition (viral titer in supernatant)” value is on record as “better inhibitory effect”. The “antiviral activity with increasing added lipids” value with influenza A virus is “decreased along with the increase of lipids”. Moreover, the “NP expression (green fluorescence) after treatment” value in [6] is “apparently decreased”. For the same molecule, the IC50 in data set [2] (read-out: IC50 ± SD, PR8) is 1.88 ± 0.85 µM; in data set [7] (read-out: IC50 ± SD, After infection), greater than 17.8 µM; in data set [7] (read-out: IC50 ± SD, During infection), 8.87 ± 3.07 µM; in data set [7] (read-out: IC50 ± SD, Pretreatment of cell), greater than 17.8 µM; in [7] (read-out: IC50 ± SD, Pretreatment of virus) it was 1.88 ± 0.85 µM; in the data set with A/Aichi/2/68 (H3N2), 1.49 ± 0.66 µM. Further, the CC50 was determined as 120.8 ± 0.95 µM in the data set with Vero-E6 cells and 230 ± 4.53 µM in the data set with MDCK cells. Moreover, in the data set on MDCK cells, the CC90 amounted to 316 µM. In addition, the “survival rate and mean survival time of infected mice” value in data set [3] was “apparently prolonged; also recorded: apparently increased”. The “body weight of infected mice” value in data set [3] is “slowly increased”. Also, the “time of maximum peak of PPIX in plasma” value in data set [8] is “about 2 h”.

One may read the IC50 as the point on the concentration scale where inhibition reaches its midpoint.
